Measured values published in EPA's ToxValDB 9.5 (doi:10.2903/j.efsa.2006.91r).
In brackets after ≈: the same amount, converted by molar mass.

Experiments:
[1] = tested on: Rattus norvegicus
[2] = tested on: Canidae; conditions: chronic; duration: 1 years; oral; Dog Other; clinical signs
[3] = tested on: Anas platyrhynchos
[4] = tested on: Aphidius rhopalosiphi; conditions: acute; duration: 2 days; mortality
[5] = tested on: Lepomis macrochirus; conditions: acute; duration: 96 hours; mortality
[6] = tested on: Bird; conditions: acute; oral; unspecified; mortality
[7] = tested on: Daphnia magna; conditions: chronic/long-term; duration: 21 days; reproduction
[8] = tested on: Oryctolagus sp.; conditions: acute; oral; mortality
[9] = tested on: Apis mellifera; conditions: acute; duration: 48 hours; dermal; mortality

For `CNC(=O)Oc1cccc2c1OC(C)(C)C2` [Carbofuran], the NOAEL ([1]; reproduction developmental) was 0.1 mg/kg-day and the NOAEL [2] was 0.1 mg/kg-day.
For `CCCCN(CCCC)SN(C)C(=O)Oc1cccc2c1OC(C)(C)C2` [Carbosulfan], the NOEL ([3]; acute, oral, unspecified, mortality) was 2.51 mg/kg, the NOEL ([3]; reproductive) was 2.5 mg/kg-day and the LC50 ([3]; short-term, oral, feed, mortality) was 3.99 mg/kg-day. It also gave an LEL [4] of 120 g/ha, an LC50 [5] of 0.015 µg/mL (≈ 0.0394 µM) and an NOAEL ([1]; chronic, duration: 104 weeks, neurology) of 1 mg/kg-day. It also gave an NOAEL ([1]; subchronic, duration: 90 days, oral, clinical chemistry) of 2 mg/kg-day, an LD50 [6] of 10 mg/kg and an NOEC [7] of 0.0032 mg/L. It also gave an LD50 [8] of 42.7 mg/kg-day and an LD50 [9] of 0.18 µg/piece.
